Key:
[1] = tested on: HGADFN003 cells; test: Effect of UPCP on HGADFN003 senescence after BUBR1 depletion (shBUBR1#3): SA-β-gal, Ki67, aneuploid cells; type: cell-based, human; settings: for Relative percentage of SA-β-gal positive cells: Fig. 5g; for Relative percentage of SA-β-gal positive cells / Relative percentage of Ki67 positive cells / Relative percentage of aneuploid cells: HGADFN003; for Relative percentage of Ki67 positive cells: Fig. 5i; for Relative percentage of aneuploid cells: Fig. 5j
Method: Immunofluorescence was performed as described previously. Cells were plated on cover slips in 12-well plates, left overnight before the treatment. Cells were fixed in 1% formaldehyde in culture medium for 10 min at 37 °C and permeabilized with 0.2% Triton X-100 in PBS for 10 min at room temperature. Cells were washed twice in PBS and blocked for 1 h with 5% BSA in PBS and then incubated with primary antibodies at 4 °C overnight, washed three times in PBS and incubated with secondary antibodies for 1 h at room temperature. Cell nuclei were counterstained with a 500 nM concentration of 4,6-diamidino-2-phenylindole (DAPI) (Sigma). Images were acquired by a fluorescence microscope (OLYMPUS FV-1000, Carl Zeiss LSM880 or Leica DMi8) and analyzed with software NIS-Elements AR v.5.0.1 (Nikon), FLUOVIEW v.4.2b (OLYMPUS), ZEN v.2.3 SP1 (Carl Zeiss) and Leica Application Suite X v.3.6.0.24 (Leica). Cells were quantified by investigators who were blinded to the identity of the analyzed cell.
SA-β-gal staining was performed as previously described. Cells were fixed in 0.5% glutaraldehyde for 15 min at room temperature, washed three times with PBS (pH 6.0) containing 1 mM MgCl2 and exposed overnight 37 °C to containing 1 mg ml^–1 5-bromo-4-chloro-3-indolyl-β-D-galactopyranoside (MCE, catalog no. HY-15934), 0.12 mM potassium ferrocyanide (Sigma, catalog no. P3289), 0.12 mM potassium ferricyanide (Sigma, catalog no. P8131) and 1 mM MgCl2 PBS buffer (pH 6.0). Cells were washed three times with H2O and observed under a microscope (OLYMPUS CKX53). SA-β-gal positive cells were quantified by investigators who were blinded to the identity of the analyzed cell.
For the metaphase chromosome spread assay, 1.5 × 10^6 cells were seeded in a 6 cm dish and incubated for 24 h with fresh medium. Then, colchicine was added to a final concentration of 0.2 μg ml^–1 and the cells were incubated at 37 °C for 2 h. After digestion, we collected and rinsed the cells with PBS. The cells were centrifuged at 160g for 10 min. Then, 1 M KCl was added to a final concentration of 0.075 mol l^–1 and the samples were incubated at 37 °C for 20 min. The cells were centrifuged, and the supernatant aspirated. The pellet was resuspended, and 1 ml methanol:glacial acetic acid (3:1) solution was added. The sample was rested at room temperature for 10 min. Then, the cells were centrifuged at 160g for 10 min. The supernatant was aspirated, and the pellet resuspended in 1 ml fixative for 30 min. The cells were centrifuged and the pellet was suspended in 1 ml fixative again for 30 min. The cells were centrifuged at 160g for 10 min and the supernatant aspirated. The pellet was then resuspended in a small volume of fixative (typically less than 500 μl) until the cell suspension appeared lightly milky. A small quantity of the cell suspension was held vertically in a pipette with the end about 10 cm above the slide. A single drop was released from this height onto the slide and allowed to air dry. The cells were then incubated with 500 nM of DAPI (Invitrogen) for 10 min. Slides were examined with an Olympus BX53 fluorescence microscope and the images were captured by using the Olympus IPP v.7.0 software. Aneuploid cells were quantified by investigators who were blinded to the identity of the analyzed cell.

[2] = target: T1, PTBP1 (Homo sapiens, UniProt P26599); test: Pulldown assay of UPCP and PTBP1; type: binding; settings: pulldown (and MST); His-UPCP 10 μg with Flag beads-PTBP1, 16 h at 4 °C
T1 construct: made in house
Method: Cells were harvested and lysed in buffer A mixed with protease inhibitor cocktail tablet (Roche) after 48 h. […] The beads were washed three times using 1× Tris saline buffer (50 mM Tris-HCl (pH 7.4) and 150 mM NaCl)) for 8 min each. The bound proteins BUBR1 or PTBP1 were eluted with 3×Flag peptide (ApexBio) for 2 h at 4 °C. Finally, BUBR1 or PTBP1 was concentrated and recovered by using the Centrifugal Filters (Amicon Ultra).
A detailed description of the pulldown assay was described previously. His-UPCP fusion protein was expression in bacteria (BL21) and induced with 0.5 mM isopropyl-β-D-thio-galactoside for 16 h at 16 °C. The bacteria were harvested and lysed in TEN buffer (20 mM Tris-HCl (pH7.4), 0.1mM EDTA, 100 mM NaCl). […] His-UPCP was eluted with Imidazole eluent (50 mM NaH2PO4, 300 mM NaCl and 50 mM Imidazole) for 2 h at 4 °C and concentrated and recovered using centrifugal filters (Amicon Ultra). For the pulldown of His-UPCP and Flag-BUBR1 or Flag-PTBP1, 10 μg His-UPCP was incubated with Flag beads (Biotool, catalog no. B23102), Flag beads-BUBR1 or Flag beads-PTBP1 respectively for 16 h at 4 °C. The beads were washed three times with PBS and added to 1× loading buffer for western blot.

[3] = tested on: IMR90 cells; test: Cell survival rate analysis in IMR90 cells; type: cell-based, human; settings: Fig. 5o, 48h
Method: Cell viability was assessed using the Cell Counting Kit-8 (CCK8) (APE, catalog no. k1018). The cells were plated in triplicate in 96-well plates (typically 10,000 cells per 100 μl per well) and were incubated with fresh medium for 24 h. Then, the cells were incubated with different concentrations (0 μM, 10 μM, 20 μM, 30 μM) of UPCP for 0 h, 24 h, 48 h or 72 h. CCK8 solution (10 μl) was added to the well for a 2 h incubation at 37 °C. Absorbance was measured at 450 nm with a 96-well plate reader (Tecan Infinite M NANO^+). Data were analyzed and further processed in i-control v.2.0 and GraphPad Prism v.7.

T1 sequence (P26599 whole entry): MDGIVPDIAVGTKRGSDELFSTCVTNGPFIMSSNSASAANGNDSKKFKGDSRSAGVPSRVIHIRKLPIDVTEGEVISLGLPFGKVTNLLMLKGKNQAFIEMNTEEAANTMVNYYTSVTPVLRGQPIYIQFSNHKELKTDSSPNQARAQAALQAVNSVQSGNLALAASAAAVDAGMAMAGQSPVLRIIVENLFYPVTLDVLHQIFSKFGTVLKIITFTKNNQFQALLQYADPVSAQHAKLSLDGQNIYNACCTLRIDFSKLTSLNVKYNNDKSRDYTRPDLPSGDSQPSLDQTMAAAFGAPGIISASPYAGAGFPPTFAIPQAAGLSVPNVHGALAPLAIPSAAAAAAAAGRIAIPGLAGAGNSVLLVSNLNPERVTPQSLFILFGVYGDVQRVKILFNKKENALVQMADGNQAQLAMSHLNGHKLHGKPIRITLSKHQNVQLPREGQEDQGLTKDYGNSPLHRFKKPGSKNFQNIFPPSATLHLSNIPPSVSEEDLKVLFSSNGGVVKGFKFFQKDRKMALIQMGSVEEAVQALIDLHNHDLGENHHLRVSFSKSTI

H-YGRKKRRQRRRYNLRSRTVLCGTCGQPADKASASGSGAQSPQNCSIM-OH (cysteines drawn unpaired) [UPCP, unique progerin C-terminal peptide]
Relative percentage of SA-β-gal positive cells ([1]; UPCP+shBUBR1#3, P=0.0068 vs Mock, 0.0058 vs UPCP, replicate 1): 38%
Relative percentage of SA-β-gal positive cells ([1]; UPCP+shBUBR1#3, P=0.0068 vs Mock, 0.0058 vs UPCP, replicate 2): 35%
Relative percentage of SA-β-gal positive cells ([1]; UPCP+shBUBR1#3, P=0.0068 vs Mock, 0.0058 vs UPCP, replicate 3): 41%
Relative percentage of SA-β-gal positive cells ([1]; UPCP, Mock 48, 52, 55, P=0.0005 vs Mock, replicate 1): 25%
Relative percentage of SA-β-gal positive cells ([1]; UPCP, Mock 48, 52, 55, P=0.0005 vs Mock, replicate 2): 28%
Relative percentage of SA-β-gal positive cells ([1]; UPCP, Mock 48, 52, 55, P=0.0005 vs Mock, replicate 3): 29%
Relative percentage of Ki67 positive cells ([1]; UPCP+shBUBR1#3, P=0.0314 vs Mock, 0.0222 vs UPCP, replicate 1): 52%
Relative percentage of Ki67 positive cells ([1]; UPCP+shBUBR1#3, P=0.0314 vs Mock, 0.0222 vs UPCP, replicate 2): 49%
Relative percentage of Ki67 positive cells ([1]; UPCP+shBUBR1#3, P=0.0314 vs Mock, 0.0222 vs UPCP, replicate 3): 43%
Relative percentage of Ki67 positive cells ([1]; UPCP, Mock 35, 41, 37, P=0.0029 vs Mock, replicate 1): 65%
Relative percentage of Ki67 positive cells ([1]; UPCP, Mock 35, 41, 37, P=0.0029 vs Mock, replicate 2): 58%
Relative percentage of Ki67 positive cells ([1]; UPCP, Mock 35, 41, 37, P=0.0029 vs Mock, replicate 3): 71%
Relative percentage of aneuploid cells ([1]; UPCP+shBUBR1#3, P=0.0641 vs Mock, 0.0036 vs UPCP, replicate 1): 25%
Relative percentage of aneuploid cells ([1]; UPCP+shBUBR1#3, P=0.0641 vs Mock, 0.0036 vs UPCP, replicate 2): 27%
Relative percentage of aneuploid cells ([1]; UPCP+shBUBR1#3, P=0.0641 vs Mock, 0.0036 vs UPCP, replicate 3): 24%
Relative percentage of aneuploid cells ([1]; UPCP, Mock 28, 36, 31, P=0.005 vs Mock, replicate 1): 19%
Relative percentage of aneuploid cells ([1]; UPCP, Mock 28, 36, 31, P=0.005 vs Mock, replicate 2): 16%
Relative percentage of aneuploid cells ([1]; UPCP, Mock 28, 36, 31, P=0.005 vs Mock, replicate 3): 18%
senescence remission by UPCP after BUBR1 depletion ([1]; HGADFN003, BUBR1 shRNA (shBUBR1#3)): depletion of BUBR1 significantly antagonized the senescence remission mediated by UPCP
combination with PTBP1 [2]: combined with PTBP1
Cell survival rate analysis (UPCP-OD/Mock-OD) ([3]; 10μM, UPCP-0μM = 1, P=0.1549, replicate 1): 0.9983
Cell survival rate analysis (UPCP-OD/Mock-OD) ([3]; 10μM, UPCP-0μM = 1, P=0.1549, replicate 2): 1.052
Cell survival rate analysis (UPCP-OD/Mock-OD) ([3]; 10μM, UPCP-0μM = 1, P=0.1549, replicate 3): 1.032
Cell survival rate analysis (UPCP-OD/Mock-OD) ([3]; 20μM, UPCP-0μM = 1, P=0.2306, replicate 1): 1.032
Cell survival rate analysis (UPCP-OD/Mock-OD) ([3]; 20μM, UPCP-0μM = 1, P=0.2306, replicate 2): 1.043
Cell survival rate analysis (UPCP-OD/Mock-OD) ([3]; 20μM, UPCP-0μM = 1, P=0.2306, replicate 3): 1.31
Cell survival rate analysis (UPCP-OD/Mock-OD) ([3]; 30μM, UPCP-0μM = 1, P=0.4981, replicate 1): 0.9716
Cell survival rate analysis (UPCP-OD/Mock-OD) ([3]; 30μM, UPCP-0μM = 1, P=0.4981, replicate 2): 1.072
Cell survival rate analysis (UPCP-OD/Mock-OD) ([3]; 30μM, UPCP-0μM = 1, P=0.4981, replicate 3): 1.021

From PMC10154249, “Unique progerin C-terminal peptide ameliorates Hutchinson–Gilford progeria syndrome phenotype by rescuing BUBR1” (Nature Aging, 2023)
